Measurements published in patent US20230103444A1 (The Regents of the University of Colorado, a Body Corporate, priority 2020, published 2023).
Where two headings read alike, the source gives them in different places.

Tests used:
[1] = test system: SW620 tumor organoids; assay: Tumor organoid cytotoxicity (CellTiter-Glo 3D)
[2] = Human microsomal stability; type: in vitro ADME; settings: human microsomes, Table 6, read-out: Microsomal stability Human t1/2
[3] = test system: HCT116 tumor organoids; assay: Tumor organoid cytotoxicity (CellTiter-Glo 3D); type: cell-based, human
Experimental: (§1) Cell based cytotoxicity dose response and combination studies. […] Plates were then incubated for 3 days before treatment.
Cell Line Tumor Organoid Culture.
Tumor Organoid Cytotoxicity.

[4] = Mouse liver microsome stability; settings: CD-1, mouse
Experimental: Microsome stability. CD-1 mouse microsomes were commercially purchased and the reactions were performed as previously described. […] The master mix was pre-incubated at 37° C. for 5 min, then 1 mM NADPH was added to start the microsomal activity reaction and maintained at 37° C. throughout the time course. Reactions were stopped at 0, 5, 15, 30, 45, and 60 min by adding 200 μL acetonitrile and analyzed by mass spectrometry. The appropriate microsome controls were also performed in the same reaction conditions.

[5] = biological target: T1, cat-CHD1L ATPase (Homo sapiens, UniProt Q86WJ1); assay: CHD1L ATPase assay with recombinant catalytic domain (cat-CHD1L); type: biochemical; settings: for IC50: Table 6, read-out: cat-CHD1L inhibition IC50
T1 construct: inferred from Ni-NTA / imidazole purification; made in house; host or cells: E. coli Rosetta 2 (DE3) pLysS; constructs were a gift from Helena Berglund, Karolinska Institute
T1 sequence (Q86WJ1 16-611 limits assumed): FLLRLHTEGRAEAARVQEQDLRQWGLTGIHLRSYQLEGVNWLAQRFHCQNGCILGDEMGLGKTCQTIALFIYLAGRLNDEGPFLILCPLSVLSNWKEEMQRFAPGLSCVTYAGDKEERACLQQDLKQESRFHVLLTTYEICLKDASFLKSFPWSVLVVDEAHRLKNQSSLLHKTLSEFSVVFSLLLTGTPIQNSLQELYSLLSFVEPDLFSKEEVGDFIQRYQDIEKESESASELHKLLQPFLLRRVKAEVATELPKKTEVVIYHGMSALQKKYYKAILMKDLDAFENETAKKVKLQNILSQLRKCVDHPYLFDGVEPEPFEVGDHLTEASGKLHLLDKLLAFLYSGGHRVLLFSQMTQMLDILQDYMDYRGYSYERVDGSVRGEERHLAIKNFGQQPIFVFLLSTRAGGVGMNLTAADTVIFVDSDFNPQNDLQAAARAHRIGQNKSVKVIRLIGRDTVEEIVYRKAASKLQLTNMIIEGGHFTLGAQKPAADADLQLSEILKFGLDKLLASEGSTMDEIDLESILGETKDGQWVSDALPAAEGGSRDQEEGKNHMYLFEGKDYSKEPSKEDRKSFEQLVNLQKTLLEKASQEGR
Experimental: All reactions were carried out using low volume non-binding surface 384-well plates (Corning Inc., Corning N.Y.). cat-CHD1L or fl-CHD1L (100 nM) and 200 nM c-Myc DNA or mononucelosome (Active Motif, Carlsbad, Calif.) were added to a buffer containing 50 mM Tris pH 7.5, 50 mM NaCl, 1 mM DTT, 5% glycerol, and the reaction was initiated by the addition of 10 μM ATP (New England Biolabs, Ipswich, Mass.) to a total volume of 10 μL and incubated at 37° C. for 1 h. ATPase activity was assayed by adding 500 nM of Phosphate Sensor (Life Technologies, Carlsbad, Calif.), containing labeled phosphate-binding protein, specifically labeled with the fluorophore MDCC, and measuring excitation (430 nm) and emission (450 nm) immediately on an EnVision® plate reader (PerkinElmer, Hopkinton, Mass.). An inorganic phosphate standard curve was used to convert the fluorescence to [Pi], and enzyme kinetics were determined using Prism8 (GraphPad Software, San Diego, Calif.).
Assay composition was the same as described above using cat-CHD1L, except that the reaction mixture volume was modified to accommodate addition of drug or DMSO. Using a Janus® liquid handler (PerkinElmer, Hopkinton, Mass.), a selected amount of compounds dissolved in 100% DMSO were mixed with 50 mM Tris pH 7.5, 50 mM NaCl, 1 mM DTT, 5% glycerol buffer to 200 μM in 10% DMSO. […] The negative control used was 1% DMSO and 10 mM EDTA was used as a positive control. Reactions were initiated with the addition of 10 μM ATP and incubated at 37° C. for 1 h. ATPase activity was measured by fluorescence by adding 500 nM Phosphate Sensor. cat-CHD1L was screened against a 20,000-compound diversity set from Life Chemicals (Woodbridge, Conn.) and a Kinase Inhibitor library from Selleck Chemicals (Houston, Tex.).
CHD1L Enzyme ATPase Assay. […] All reactions were carried out using low volume nonbinding surface 384-well plates (Corning Inc., Corning, N.Y.). […] The reaction was initiated by the addition of 10 μmol/L ATP (New England Biolabs, Ipswich, Mass.) to a total volume of 10 μL and incubated at 37° C. for 1 hour. ATPase activity was measured by adding 500 nmol/L of Phosphate Sensor (ThermoFisher, Waltham, Mass.) measuring excitation (430 nm) and emission (450 nm) immediately on an Envision plate reader (PerkinElmer, Waltham, Mass.). Background signal was determined by using all assay components excluding the enzyme.

[6] = test system: SW620 tumor organoids; assay: Synergy studies with SN38 (LOEWE synergy scores); type: cell-based, human; settings: killing SW620 tumor organoids
Experimental: as §1
(e.g., synergy score 20 corresponds to 20% of response beyond expectation). According to our experience, the synergy scores near 0 gives limited confidence on synergy or antagonism.
When the synergy score is: • Less than −10: the interaction between two drugs is likely to be antagonism; • From −10 to 10: the interaction between two drugs is likely to be additivity; • Larger than 10: the interaction between two drugs is likely to be synergy.

[7] = Homo sapiens, SW-620, 72 h, read-out: 3 D Cytotoxicity 72 hr IC50 (μM) SW620
[8] = Homo sapiens, SW-620, read-out: IC50 of cytotoxicity in SW620 cells
[9] = Homo sapiens, SW-620, read-out: Tumor Organoid Cytotoxicity IC50 (μM) SW620
[10] = Homo sapiens, HCT-116, 72 h, Table 6, read-out: 3 D Cytotoxicity 72 hr IC50 (μM) HCT116
[11] = Homo sapiens, HCT-116, single agent, Table 4A, read-out: Tumor Organoid Cytotoxicity IC50 (μM) HCT116
[12] = liver microsomes, pH 7.4, Microsomal stability Mouse t1/2 (min), Table 6
[13] = liver microsomes, pH 7.4, In Vitro Half-Life (Min), second series, different liver microsome preparation

IC50 [5] [µM] | Compound | IC50 [1, 7] [µM] | IC50 [1, 9] [µM] | IC50 [3, 10] [µM] | IC50 [3, 11] [µM] | half-life at 10 μM [4, 13] [min] | also measured
1.4 | Cc1cc(N2CCN(C)CC2)nc(NCc2ccc(NC(=O)Cc3cc(Br)cs3)cc2)n1 [Compound 6.45] | 27.2 |  | 10.6 |  |  | 
> 20 | Cc1cc(Nc2ccc(NC(=O)Cn3ccnc3)cc2)nc(N2CCCC2)n1 [Compound 6.50] | > 40 |  | 26.2 |  |  | 
11.4 | Cc1cc(Nc2ccc(NC(=O)Cc3cc(Br)cs3)cc2)nc(N2CCNCC2)n1 [Compound 6.40] | 10.5 |  | 4.8 |  |  | 
1 | O=C(Cc1cc(Br)cs1)Nc1ccc(Nc2cc(C(F)(F)F)nc(N3CCCC3)n2)cc1 [Compound 6.59] | 14.8 |  | 11.9 |  |  | 
2.4 | Cc1cc(NCc2ccc(NC(=O)Cc3cc(Br)cs3)cc2)nc(N2CCNCC2)n1 [Compound 6.57] | 14.6 |  | 10.8 |  |  | 
0.8 | Cc1cc(N2CCCCC2)nc(NCc2ccc(NC(=O)Cc3cc(Br)cs3)cc2)n1 [Compound 6.47] | 13.8 |  | 9.3 |  |  | 
18.7 | Cc1cc(Nc2ccc(NC(=O)Cc3cc(Br)cs3)cc2)n2nc(N3CCCC3)nc2n1 [Compound 6.55] | > 40 |  | > 40 |  |  | 
3.5 | Cc1cc(NCc2ccc(NC(=O)Cc3cc(Br)cs3)cc2)n2nc(N)nc2n1 [Compound 6.54] | > 40 |  | > 40 |  |  | 
1.4 | O=C(Cc1cc(Br)cs1)Nc1ccc(CNc2cc(C(F)(F)F)nc(N3CCCC3)n2)cc1 [Compound 6.58] |  |  |  |  |  | CHD1L enzyme inhibition, in words ([5]; recombinant cat-CHD1L): good enzyme inhibition; IC50 ([1]; read-out: 3 D Cytotoxicity 72 hr IC50 (μM) SW620, Table 6): 2.2 µM; IC50 ([3]; Table 6, read-out: 3 D Cytotoxicity 72 hr IC50 (μM) HCT116): 7.8 µM

Continued, molecule first:

Compound | IC50 [5] [µM] | IC50 [1, 7] [µM] | IC50 [1, 9] [µM] | IC50 [3, 10] [µM] | IC50 [3, 11] [µM] | half-life at 10 μM [4, 13] [min] | also measured
Cc1cc(Nc2ccc(NC(=O)Cc3c[nH]c4cc(Cl)ccc34)cc2)nc(N2CCCC2)n1 [Compound 6.18, 2-(6-chloro-1H-indol-3-yl)-N-(4-((6-methyl-2-(pyrrolidin-1-yl)pyrimidin-4-yl)amino)phenyl)acetamide] |  | 1.5 | 1.4 | 3 | 2.95 |  | IC50 [1, 8]: < 10 µM; half-life [2]: 88.1 min; half-life at 10 μM [4, 12]: 141 min
Cc1cc(Oc2ccc(NC(=O)Cc3cccs3)cc2)nc(N2CCCC2)n1 [Compound 6.13, N-(4-((6-methyl-2-(pyrrolidin-1-yl)pyrimidin-4-yl)oxy)phenyl)-2-(thiophen-2-yl)acetamide] |  | > 20 | > 20 | > 40 | > 30 | 43.1 | 
Cc1cc(Nc2ccc(NC(=O)Cc3cccs3)cc2)nc(N2CCOCC2)n1 [Compound 6.15, N-(4-((6-methyl-2-morpholinopyrimidin-4-yl)amino)phenyl)-2-(thiophen-2-yl)acetamide] |  | 13.1 | 16.4 | 19.7 | 19.7 | 22.7 | 
Cc1cc(Nc2ccc(NC(=O)Cn3ccnc3)cc2)nc(N2CCN(C)CC2)n1 [Compound 6.52] | > 20 | > 20 |  | > 20 |  |  | 
COc1cnc(N2CCCC2)nc1Nc1ccc(NC(=O)Cc2cccs2)cc1 [Compound 6.10, N-(4-((5-methoxy-2-(pyrrolidin-1-yl)pyrimidin-4-yl)amino)phenyl)-2-(thiophen-2-yl)-acetamide] |  | 24.1 | 22.6 | > 40 | > 30 | 16.7 | 
Cc1cc(Nc2ccc(NC(=O)c3c[nH]c4ncccc34)cc2)nc(N2CCCC2)n1 [Compound 6.9, N-(4-((6-methyl-2-(pyrrolidin-1-yl)pyrimidin-4-yl)amino)phenyl)-1H-pyrrolo[2,3-b]pyridine-3-carboxamide] |  | 8.3 | 8.1 | 19.7 | 19.6 | 295 | synergism with irinotecan (and SN38), in words [6]: synergism
Cc1nc(N2CCCC2)nc(Nc2ccc(NC(=O)Cc3cccs3)cc2)c1F [Compound 6.1, N-(4-((5-fluoro-6-methyl-2-(pyrrolidin-1-yl)pyrimidin-4-yl)amino)phenyl)-2-(thiophen-2-yl)acetamide] |  | > 40 | > 40 | > 40 | > 30 | 34.9 | 
Cc1cc(Oc2ccc(NC(=O)c3c[nH]c4ccccc34)cc2)nc(N2CCCC2)n1 [Compound 6.14, N-(4-((6-methyl-2-(pyrrolidin-1-yl)pyrimidin-4-yl)oxy)phenyl)-1H-indole-3-carboxamide] |  | 11.1 | 10.4 | 15.3 | 15.3 | 70.4 | 
Cc1cc(Oc2ccc(NC(=O)Cc3cccs3)cc2)nc(Cl)n1 [Compound 6.12, N-(4-((2-chloro-6-methylpyrimidin-4-yl)oxy)phenyl)-2-(thiophen-2-yl)acetamide] |  | > 20 | > 20 | > 40 | > 30 | 9.3 | 
O=C(Cc1cccs1)Nc1ccc(Nc2nc(N3CCCC3)ncc2F)cc1 [Compound 6.2, N-(4-((5-fluoro-2-(pyrrolidin-1-yl)pyrimidin-4-yl)amino)phenyl)-2-(thiophen-2-yl)acetamide] |  | > 40 | > 40 |  |  | 26.1 | 
Cc1cc(Nc2ccc(NC(=O)Cc3c(C)[nH]c4ccccc34)cc2)nc(N2CCCC2)n1 [Compound 6.21, 2-(2-methyl-1H-indol-3-yl)-N-(4-((6-methyl-2-(pyrrolidin-1-yl)pyrimidin-4-yl)amino)phenyl)acetamide] |  | 1.7 | 1.6 |  |  |  | IC50 [1, 8]: < 10 µM; half-life [2]: 43.8 min; half-life at 10 μM [4, 12]: 47.8 min
Cc1cc(Nc2ccc(NC(=O)Cn3ccnc3)cc2)nc(N2CCCCC2)n1 [Compound 6.51] | 6 | 40.7 |  | 15.1 |  |  | 
Cc1nc(N2CCCC2)nc(Nc2ccc(N(C)C(=O)Cc3cccs3)cc2)c1F [Compound 6.4] |  | > 40 | 28.4 | > 40 | > 30 |  | half-life at 10 μM ([4]; microsomes, pH 7.4): 31.4 min
